Measurements from article PMC12325182, “Discovery of novel and potent celastrol derivatives as PRDX1 inhibitors for cancer therapy through structure-based virtual screening” (Frontiers in Pharmacology, 2025).

Columns and labels:
[1] = molecular target: other PRDX family members and a panel of kinases; test: Kinase selectivity assay (whole panel); format: biochemical; settings: whole panel of Table S1; read-out: IC50 against other PRDX family members and a panel of kinases
Protocol: (§1) The selectivity of CP1 for PRDX1 was evaluated through kinase selectivity assays against other PRDX family members and a panel of kinases. The experiments were conducted by ICE Biosciences (Beijing, China).

[2] = molecular target: T1, TXK (Homo sapiens, UniProt P42681); test: Kinase selectivity assay; format: biochemical; settings: target TXK; read-out: CP1 IC50
T1 construct: ICE Biosciences (Beijing, China), a contract laboratory that ran the assay
Protocol: as §1

[3] = molecular target: T2, PDGFRA (Homo sapiens, UniProt P16234); test: Kinase selectivity assay; format: biochemical; settings: target PDGFRA; read-out: CP1 IC50
T2 construct: assay run by ICE Biosciences (Beijing, China)
Protocol: as §1

[4] = molecular target: T3, TEK (Homo sapiens, UniProt Q02763); test: Kinase selectivity assay; format: biochemical; settings: target TEK; read-out: CP1 IC50
T3 construct: assay run by ICE Biosciences (Beijing, China)
T3 sequence (Q02763 23-1124): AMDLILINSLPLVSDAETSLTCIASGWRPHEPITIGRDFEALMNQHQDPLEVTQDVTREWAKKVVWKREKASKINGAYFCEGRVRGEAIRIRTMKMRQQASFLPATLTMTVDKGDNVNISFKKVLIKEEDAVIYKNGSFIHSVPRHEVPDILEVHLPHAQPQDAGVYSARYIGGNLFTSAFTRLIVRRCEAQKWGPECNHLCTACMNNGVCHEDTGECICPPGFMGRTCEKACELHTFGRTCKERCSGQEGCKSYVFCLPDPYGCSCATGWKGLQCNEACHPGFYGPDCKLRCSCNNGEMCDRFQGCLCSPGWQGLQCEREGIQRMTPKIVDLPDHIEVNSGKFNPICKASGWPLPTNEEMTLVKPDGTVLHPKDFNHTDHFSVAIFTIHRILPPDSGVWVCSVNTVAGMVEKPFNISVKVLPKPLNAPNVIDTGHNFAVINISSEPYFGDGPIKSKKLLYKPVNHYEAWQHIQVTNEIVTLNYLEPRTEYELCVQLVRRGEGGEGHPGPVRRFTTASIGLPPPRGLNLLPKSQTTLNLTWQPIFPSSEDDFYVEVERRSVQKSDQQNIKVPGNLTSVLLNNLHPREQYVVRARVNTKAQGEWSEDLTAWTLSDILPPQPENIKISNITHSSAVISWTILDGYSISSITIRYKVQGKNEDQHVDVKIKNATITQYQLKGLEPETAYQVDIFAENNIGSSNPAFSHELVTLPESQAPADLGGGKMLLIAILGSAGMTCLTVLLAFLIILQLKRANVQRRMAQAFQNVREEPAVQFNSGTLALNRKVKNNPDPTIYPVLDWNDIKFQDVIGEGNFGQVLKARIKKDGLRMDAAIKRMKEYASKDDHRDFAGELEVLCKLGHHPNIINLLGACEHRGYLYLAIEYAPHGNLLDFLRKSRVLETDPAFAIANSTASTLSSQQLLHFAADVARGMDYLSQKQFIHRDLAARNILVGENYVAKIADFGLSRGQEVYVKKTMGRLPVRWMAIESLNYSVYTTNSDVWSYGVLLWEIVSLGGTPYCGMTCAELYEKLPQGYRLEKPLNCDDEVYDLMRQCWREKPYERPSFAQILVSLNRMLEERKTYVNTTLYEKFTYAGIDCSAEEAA
Protocol: as §1

[5] = molecular target: T4, AXL (Homo sapiens, UniProt P30530); test: Kinase selectivity assay; format: biochemical; settings: target AXL; read-out: CP1 IC50
T4 construct: ICE Biosciences (Beijing, China), ran the assays
Protocol: as §1

[6] = molecular target: T5, ROS1 (Homo sapiens, UniProt P08922); test: Kinase selectivity assay; format: biochemical; settings: target ROS1; read-out: CP1 IC50
T5 construct: assay run by ICE Biosciences (Beijing, China)
Protocol: as §1

[7] = molecular target: T6, EPHA2 (Homo sapiens, UniProt P29317); test: Kinase selectivity assay; format: biochemical; settings: target EPHA2; read-out: CP1 IC50
T6 construct: ICE Biosciences (Beijing, China), ran the assays
Protocol: as §1

[8] = molecular target: T7, ABL1 (Homo sapiens, UniProt P00519); test: Kinase selectivity assay; format: biochemical; settings: target ABL1; read-out: CP1 IC50
T7 construct: ICE Biosciences (Beijing, China), ran the assays
T7 sequence (P00519 whole entry): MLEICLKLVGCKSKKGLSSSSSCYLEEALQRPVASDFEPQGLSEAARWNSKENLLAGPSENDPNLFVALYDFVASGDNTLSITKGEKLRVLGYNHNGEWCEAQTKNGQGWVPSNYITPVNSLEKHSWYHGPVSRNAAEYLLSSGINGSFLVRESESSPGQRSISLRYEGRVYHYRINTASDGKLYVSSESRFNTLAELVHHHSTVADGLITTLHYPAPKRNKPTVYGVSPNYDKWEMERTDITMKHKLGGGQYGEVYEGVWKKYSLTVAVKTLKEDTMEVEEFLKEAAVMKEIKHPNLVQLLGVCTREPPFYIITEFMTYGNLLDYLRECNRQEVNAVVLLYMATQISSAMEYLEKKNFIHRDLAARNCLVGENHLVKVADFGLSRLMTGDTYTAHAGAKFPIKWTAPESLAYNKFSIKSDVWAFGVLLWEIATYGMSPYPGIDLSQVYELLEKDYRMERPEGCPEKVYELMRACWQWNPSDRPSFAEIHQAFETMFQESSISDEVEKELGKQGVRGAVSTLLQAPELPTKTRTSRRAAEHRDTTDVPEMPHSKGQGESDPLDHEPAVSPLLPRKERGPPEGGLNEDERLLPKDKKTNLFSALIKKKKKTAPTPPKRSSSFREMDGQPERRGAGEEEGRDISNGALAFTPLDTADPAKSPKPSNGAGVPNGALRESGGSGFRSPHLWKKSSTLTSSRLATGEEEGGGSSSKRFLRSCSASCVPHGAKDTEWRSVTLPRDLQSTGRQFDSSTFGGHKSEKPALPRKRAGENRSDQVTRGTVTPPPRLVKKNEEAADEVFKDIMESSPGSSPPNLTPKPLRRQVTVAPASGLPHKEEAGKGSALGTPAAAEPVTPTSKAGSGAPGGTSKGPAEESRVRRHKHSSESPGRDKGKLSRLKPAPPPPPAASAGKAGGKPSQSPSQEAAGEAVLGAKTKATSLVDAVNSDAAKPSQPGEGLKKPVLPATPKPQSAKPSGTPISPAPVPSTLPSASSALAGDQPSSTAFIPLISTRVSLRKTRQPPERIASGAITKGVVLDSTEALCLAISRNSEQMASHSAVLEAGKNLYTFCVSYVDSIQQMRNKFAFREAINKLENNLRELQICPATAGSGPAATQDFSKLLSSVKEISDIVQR
Protocol: as §1

[9] = molecular target: ERBB4 (Homo sapiens, UniProt Q15303); test: Kinase selectivity assay; format: biochemical; settings: target ERBB4; read-out: CP1 IC50
Sequence of ERBB4 (Q15303 26-1308): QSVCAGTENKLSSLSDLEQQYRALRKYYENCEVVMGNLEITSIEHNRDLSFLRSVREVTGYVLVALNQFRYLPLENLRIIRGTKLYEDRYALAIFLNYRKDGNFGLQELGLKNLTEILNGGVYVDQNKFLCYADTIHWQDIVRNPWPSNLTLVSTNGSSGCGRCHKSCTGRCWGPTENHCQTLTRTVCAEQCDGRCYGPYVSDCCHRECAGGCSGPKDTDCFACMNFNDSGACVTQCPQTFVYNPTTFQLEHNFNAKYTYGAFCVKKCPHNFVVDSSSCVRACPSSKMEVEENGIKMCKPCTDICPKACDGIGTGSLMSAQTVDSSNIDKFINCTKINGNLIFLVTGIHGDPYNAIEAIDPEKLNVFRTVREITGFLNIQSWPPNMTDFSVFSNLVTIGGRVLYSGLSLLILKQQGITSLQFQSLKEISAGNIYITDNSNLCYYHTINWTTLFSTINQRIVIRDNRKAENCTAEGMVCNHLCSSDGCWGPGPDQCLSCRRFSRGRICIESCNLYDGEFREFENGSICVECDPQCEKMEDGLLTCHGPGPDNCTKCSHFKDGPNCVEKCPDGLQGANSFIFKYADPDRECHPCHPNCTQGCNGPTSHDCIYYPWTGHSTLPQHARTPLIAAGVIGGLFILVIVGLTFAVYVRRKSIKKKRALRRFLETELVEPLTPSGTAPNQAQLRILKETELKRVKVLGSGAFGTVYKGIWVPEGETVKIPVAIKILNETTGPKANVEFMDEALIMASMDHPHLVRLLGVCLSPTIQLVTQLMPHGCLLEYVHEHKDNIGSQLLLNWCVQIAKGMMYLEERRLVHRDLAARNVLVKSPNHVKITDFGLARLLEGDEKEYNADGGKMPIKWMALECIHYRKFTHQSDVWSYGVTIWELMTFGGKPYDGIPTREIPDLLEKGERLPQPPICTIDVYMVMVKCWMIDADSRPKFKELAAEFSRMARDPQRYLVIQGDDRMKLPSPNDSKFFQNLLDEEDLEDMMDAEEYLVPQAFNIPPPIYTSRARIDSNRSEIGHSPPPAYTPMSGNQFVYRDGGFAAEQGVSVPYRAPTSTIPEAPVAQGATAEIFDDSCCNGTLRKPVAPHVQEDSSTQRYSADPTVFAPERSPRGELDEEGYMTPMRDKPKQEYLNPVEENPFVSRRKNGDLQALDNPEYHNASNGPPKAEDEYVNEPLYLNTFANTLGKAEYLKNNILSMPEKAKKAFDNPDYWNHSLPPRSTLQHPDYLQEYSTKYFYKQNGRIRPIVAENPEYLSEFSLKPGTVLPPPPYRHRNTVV
Protocol: as §1

[10] = molecular target: T8, FLT1 (Homo sapiens, UniProt P17948); test: Kinase selectivity assay; format: biochemical; settings: target FLT1; read-out: CP1 IC50
T8 construct: assay run by ICE Biosciences (Beijing, China)
T8 sequence (P17948 27-1338): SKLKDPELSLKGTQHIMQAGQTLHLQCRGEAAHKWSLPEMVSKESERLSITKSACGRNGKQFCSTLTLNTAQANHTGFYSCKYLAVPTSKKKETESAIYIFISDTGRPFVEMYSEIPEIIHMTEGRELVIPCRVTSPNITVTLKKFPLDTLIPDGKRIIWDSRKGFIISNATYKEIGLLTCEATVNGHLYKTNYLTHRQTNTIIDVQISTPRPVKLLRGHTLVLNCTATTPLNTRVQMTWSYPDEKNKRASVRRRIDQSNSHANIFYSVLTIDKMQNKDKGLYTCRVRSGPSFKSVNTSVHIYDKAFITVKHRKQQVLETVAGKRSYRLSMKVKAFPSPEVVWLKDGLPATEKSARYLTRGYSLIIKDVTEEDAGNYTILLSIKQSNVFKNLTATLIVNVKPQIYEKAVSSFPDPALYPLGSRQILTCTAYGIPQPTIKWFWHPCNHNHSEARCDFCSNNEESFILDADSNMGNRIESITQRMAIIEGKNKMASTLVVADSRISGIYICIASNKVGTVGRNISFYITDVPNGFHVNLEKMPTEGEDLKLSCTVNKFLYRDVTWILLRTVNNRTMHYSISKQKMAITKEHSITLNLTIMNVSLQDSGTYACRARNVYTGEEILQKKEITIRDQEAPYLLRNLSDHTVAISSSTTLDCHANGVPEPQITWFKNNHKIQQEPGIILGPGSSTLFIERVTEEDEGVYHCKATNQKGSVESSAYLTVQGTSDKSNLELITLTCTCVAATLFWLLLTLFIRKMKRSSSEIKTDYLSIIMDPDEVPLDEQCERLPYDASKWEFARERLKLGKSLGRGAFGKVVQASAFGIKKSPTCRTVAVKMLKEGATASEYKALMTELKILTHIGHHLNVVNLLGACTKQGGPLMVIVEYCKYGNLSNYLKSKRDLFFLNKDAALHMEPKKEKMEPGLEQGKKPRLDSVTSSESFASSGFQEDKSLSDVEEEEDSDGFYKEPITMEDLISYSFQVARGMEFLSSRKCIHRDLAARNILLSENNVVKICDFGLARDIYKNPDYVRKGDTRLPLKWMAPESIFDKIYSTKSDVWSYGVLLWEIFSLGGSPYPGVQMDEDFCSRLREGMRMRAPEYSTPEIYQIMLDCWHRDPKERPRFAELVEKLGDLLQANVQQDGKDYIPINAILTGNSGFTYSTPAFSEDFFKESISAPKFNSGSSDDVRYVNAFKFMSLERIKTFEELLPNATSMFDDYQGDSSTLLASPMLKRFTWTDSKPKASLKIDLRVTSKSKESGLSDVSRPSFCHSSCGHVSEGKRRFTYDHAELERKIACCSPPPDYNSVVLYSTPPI
Protocol: as §1

[11] = molecular target: EPHB4 (Homo sapiens, UniProt P54760); test: Kinase selectivity assay; format: biochemical; settings: target EPHB4; read-out: CP1 IC50
Protocol: as §1

[12] = molecular target: T9, DDR1 (Homo sapiens, UniProt Q08345); test: Kinase selectivity assay; format: biochemical; settings: target DDR1; read-out: CP1 IC50
T9 construct: ICE Biosciences (Beijing, China), ran the assays
Protocol: as §1

[13] = molecular target: NTRK2 (Homo sapiens, UniProt Q16620); test: Kinase selectivity assay; format: biochemical
Protocol: as §1

[14] = molecular target: T10, FLT3 (Homo sapiens, UniProt P36888); test: Kinase selectivity assay; format: biochemical; settings: target FLT3; read-out: CP1 IC50
T10 construct: assay run by ICE Biosciences (Beijing, China)
Protocol: as §1

[15] = molecular target: FER (Homo sapiens, UniProt P16591); test: Kinase selectivity assay; format: biochemical; settings: target FER; read-out: CP1 IC50
Protocol: as §1

[16] = molecular target: T11, SYK (Homo sapiens, UniProt P43405); test: Kinase selectivity assay; format: biochemical; settings: target SYK; read-out: CP1 IC50
T11 construct: assay run by ICE Biosciences (Beijing, China)
Protocol: as §1

[17] = molecular target: T12, PRDX4 (Homo sapiens, UniProt Q13162); test: Kinase selectivity assay; format: biochemical; settings: target PRDX4; read-out: CP1 IC50
T12 construct: ICE Biosciences (Beijing, China), ran the assays
T12 sequence (Q13162 38-271): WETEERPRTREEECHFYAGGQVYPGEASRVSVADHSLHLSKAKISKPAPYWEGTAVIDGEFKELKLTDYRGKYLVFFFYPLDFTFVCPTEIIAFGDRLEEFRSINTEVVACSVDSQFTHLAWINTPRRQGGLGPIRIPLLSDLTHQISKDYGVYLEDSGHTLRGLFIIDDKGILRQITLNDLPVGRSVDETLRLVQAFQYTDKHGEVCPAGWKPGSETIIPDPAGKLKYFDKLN
Protocol: as §1

[18] = molecular target: LYN (Homo sapiens, UniProt P07948); test: Kinase selectivity assay; format: biochemical; settings: target LYN; read-out: CP1 IC50
Protocol: as §1

[19] = system: HEK293 (embryonic kidney cells); test: MTT assay; format: cell-based; settings: Homo sapiens, HEK293; MTT, 72 h; normal cells; mean ± SD, n = 3; read-out: IC50 (μM) HEK293
Protocol: (§2) Cells were seeded in 96-well plates at 5 ×10^4 cells/well and cultured overnight at 37°C under 5% CO2. After medium removal, cells were treated with serially diluted compounds (0.04–163.84 μM) or vehicle control (0.1% DMSO) and incubated for 72 h. Subsequently, 20 μL of MTT solution (5 mg/mL) was added to each well, and incubation was continued for 4 h. Add 150 μL of DMSO and shake for 10 min to fully dissolve the crystal. Finally, the absorbance was measured at 570 nm using a microplate reader. Cell viability was calculated as (ODcompound - ODblank)/(ODvehicle - ODblank) × 100%. The half inhibitory concentration (IC50) was calculated from the dose-response curve using Prism 8.0 software. Three independent replicate experiments were performed.

[20] = system: BEAS-2B normal lung cells; test: MTT assay; format: cell-based; settings: Homo sapiens, MTT, 72 h, normal lung cells, mean ± SD, n = 3, read-out: IC50 (μM) BEAS-2B
Protocol: as §2

[21] = system: LO2 (normal liver cells); test: MTT assay; format: cell-based; settings: Homo sapiens; MTT, 72 h; normal cells; mean ± SD, n = 3; read-out: IC50 (μM) LO2
Protocol: as §2

[22] = system: HepG2 (hepatocellular carcinoma cells); test: MTT assay; format: cell-based; settings: Homo sapiens, HepG2; MTT, 72 h; mean ± SD, n = 3; read-out: IC50 (μM) HepG2
Protocol: as §2

[23] = system: HaCaT (immortalised keratinocytes); test: MTT assay; format: cell-based; settings: Homo sapiens, 72 h, normal cells, mean ± SD, n = 3
Protocol: as §2

[24] = system: A549 lung cancer cells; test: MTT assay; format: cell-based
Protocol: as §2

[25] = system: MCF-7 (breast adenocarcinoma cells); test: MTT assay; format: cell-based; settings: Homo sapiens, MCF7; MTT, 72 h; mean ± SD, n = 3; read-out: IC50 (μM) MCF-7
Protocol: as §2

Structure (SMILES): CC1=C(CC(=O)/C=C/c2cccc(CO)c2)C(=O)C=C2C1=CC=C1[C@@]2(C)CC[C@@]2(C)C3C[C@](C)(C(=O)CCc4nc(C(O)C(O)O)c(C)nc4C)CC[C@]3(C)CC[C@]12C (some centres unmarked) [CP1]
- IC50 [1]: > 30 µM
- IC50 [2]: > 30 µM
- IC50 [3]: > 30 µM
- IC50 [4]: > 30 µM
- IC50 [5]: > 30 µM
- IC50 [6]: > 30 µM
- IC50 [7]: > 30 µM
- IC50 [8]: > 30 µM
- IC50 [9]: > 30 µM
- IC50 [10]: > 30 µM
- IC50 [11]: > 30 µM
- IC50 [12]: > 30 µM
- IC50 [13]: > 30 µM
- IC50 [14]: > 30 µM
- IC50 [15]: > 30 µM
- IC50 [16]: > 30 µM
- IC50 [17]: > 30 µM
- IC50 [18]: > 30 µM
- IC50 [19]: > 100 µM
- IC50 [20]: > 100 µM
- IC50 [21]: > 100 µM
- IC50 [22]: 0.25 ± 0.02 µM
- IC50 [23]: > 100 µM
- IC50 ([24]; Homo sapiens, A549, MTT, 72 h, mean ± SD, n = 3, read-out: IC50 (μM) A549): 0.22 ± 0.01 µM
- improvement of antiproliferative activity against A549 cells compared to celastrol ([24]; ratio of IC50 values): approximately 5 fold
- IC50 [25]: 0.27 ± 0.01 µM
